Legend:
[1] = test system: human HT-1080 fibrosarcoma cells; test: growth inhibitory action against human HT-1080 fibrosarcoma cells (crystal violet method); type: cell-based; conditions: HT-1080 cells; for IC50: Homo sapiens, 24 hours culture with test drug, DMEM/F12 with 0.1% bovine serum albumin; for growth inhibitory action on HT-1080 fibrosarcoma cells (in words): 24 hours, summary of Table 1
Procedure: The growth inhibitory action of the selenazolin derivatives of chemical formulas 4 through 12 against human HT-1080 fibrosarcoma cells was investigated. HT-1080 fibrosarcoma cells growing in Eagle's Minimum Essential Medium (EMEM) containing 10% fetal calf serum within an incubator having an atmosphere of 5% CO2 and 95% air maintained at a temperature of 37 degrees Celsius were inoculated into a 96-well plate at the rate of 1×10^4 cells/well. After 48 hours, the medium was replaced with Dulbecco's Modified Eagle's Medium (DMEM)/F12 medium containing 0.1% bovine serum albumin, and the test drugs at each concentration (0.1 μM, 100 μM) were added, followed by culturing for 24 hours. Growth inhibitory action on human HT-1080 fibrosarcoma cells was determined from the staining density following staining using the crystal violet method.

protein kinases = test: simultaneous detection of the activity of a plurality of protein kinases on a single gel (lysate of v-src transformed NIH3T3 cells, labeled ATP, SDS-PAGE and autoradiography); type: biochemical; conditions: supernatant of v-src transformed NIH3T3 cells; relative to rottlerin, typically used as a protein kinase inhibitor
Procedure: Action relative to a plurality of protein kinases was investigated in accordance with the method for simultaneous detection of the activity of a plurality of protein kinases on a single gel as described in Anal. Biochem. 212:106–110, 1993.
More specifically, NIH3T3 cells transformed with v-src were disintegrated with a hypotonic buffer and denucleated by gentle centrifugation. Various types of […] (including 1 μM PMA (phorbolmyristate acetate), 20 μM cyclic adenosine-3′,5′-monophosphate (cAMP)) were then added to the centrifuged supernatant. Moreover, 3-isopropyl-2-isopropylimino-1,3-selenazolidin-4-one of chemical formula 4 and labeled adenosine triphosphate (ATP) were added and the mixture was allowed to react. After stopping the reaction, the phosphorylated protein was analyzed by SDS-PAGE and autoradiography.

Compound `Cc1ccccc1N=C1[Se]CC(=O)N1c1ccccc1C` [Chemical Formula 12, 3-o-tolyl-2-o-tolylimino-1,3-selenazolidin-4-one] has an IC50 [1] of 75 µM.

In the case of `Cc1ccc(N=C2[Se]CC(=O)N2c2ccc(C)cc2)cc1` [Chemical Formula 11, 3-p-tolyl-2-p-tolylimino-1,3-selenazolidin-4-one], the IC50 [1] is reported as greater than 100 µM.

`CC(C)(C)N=C1[Se]CC(=O)N1C(C)(C)C` [Chemical Formula 10, 3-t-butyl-2-t-butylimino-1,3-selenazolidin-4-one] was tested, and the “growth inhibitory action on HT-1080 fibrosarcoma cells (in words)” value (“growth inhibitory action” for short) [1] was “potent growth inhibitory action” and the IC50 [1] was 4.5 µM.

Work on `CC(C)N=C1[Se]C(C)C(=O)N1C(C)C` (stereo not shown) [Chemical Formula 6, 3-isopropyl-2-isopropylimino-5-methyl-1,3-selenazolidin-4-one] yielded an IC50 [1] of 89 µM.

Compound `O=C1C[Se]C(=NC2CCCCC2)N1C1CCCCC1` [Chemical Formula 5, 3-cyclohexyl-2-cyclohexylimino-1,3-selenazolidin-4-one] has an IC50 [1] greater than 100 µM.

`CC(C)N=C1[Se]C(C)(C)C(=O)N1C(C)C` [Chemical Formula 8, 3-isopropyl-2-isopropylimino-5,5-dimethyl-1,3-selenazolidin-4-one] showed an IC50 [1] of 98 µM.

For `CC(C)N=C1[Se]CC(=O)N1C(C)C` [Chemical Formula 4, 3-isopropyl-2-isopropylimino-1,3-selenazolidin-4-one], the “inhibitory activity compared with rottlerin” value (protein kinases) was no less than 20 times, the “growth inhibitory action” value [1] was “potent growth inhibitory action” and the IC50 [1] was 3.2 µM.

`CCC1[Se]C(=NC(C)C)N(C(C)C)C1=O` (stereo not shown) [Chemical Formula 7, 3-isopropyl-2-isopropylimino-5-ethyl-1,3-selenazolidin-4-one] was tested, and the “growth inhibitory action” value [1] was “potent growth inhibitory action” and the IC50 [1] was 2.5 µM.

In the case of `CC(C)N=C1[Se]C(c2ccccc2)C(=O)N1C(C)C` (stereo not shown) [Chemical Formula 9, 3-isopropyl-2-isopropylimino-5-phenyl-1,3-selenazolidin-4-one], the IC50 [1] is reported as greater than 100 µM.

Reference: patent publication US7176164B2, “1,3-selenazolin derivatives and process for preparing the same” (Gifu University, priority 2001, dated 2007)
